Legend:
[1] = molecular target: PI3K-δ (PI3K(p1108/p857) (h)) (Homo sapiens, UniProt O00329); assay: Evaluation of inhibitory activity against PI3K-δ (HTRF kinase assay); assay type: biochemical; settings: for inhibition at 0.01 µM: compound concentration 0.01 μM, read-out: EXP_VALUE(% Inhibition) PI3K-δ 0.01 μM; for inhibition at 0.1 µM: compound concentration 0.1 μM, read-out: EXP_VALUE(% Inhibition) PI3K-δ 0.1 μM
Procedure: <Experimental Example 1> Evaluation of Inhibitory Activity Properties Against PI3K-δ
The following experiments were performed to verify the inhibitory activity against PI3K-δ with regard to each of the compounds of Examples 1 to 441 according to the present invention.
PI3K(p1108/p857) (h) was incubated in assay buffer comprising 10 μM phosphatidylinositol-4,5-bisphosphate and Mg/ATP (at a concentration as required). The reaction was initiated by the addition of a Mg/ATP mixture, and after incubation for 30 minutes at room temperature, a stop solution comprising EDTA and phosphatidylinositol-3,4,5-triphosphate was added to stop the reaction and carry out biotinylation.
A detection buffer comprising Eu (europium)-labelled anti-GST monoclonal antibody, GST-tagged GRP1 PH domain and streptavidin-allophycocyanin was added. A plate was read in a time-resolved fluorescence mode and a homogeneous time-resolved fluorescence (HTRF) signal was determined according to HTRF=10000×(Em 665 nm/Em 620 nm).

[2] = molecular target: DNA-PK(h) (Homo sapiens, UniProt P78527); assay: Evaluation of inhibitory activity against DNA-PK (HTRF kinase assay, GST-cMyc-p53 substrate); assay type: biochemical; settings: for inhibition at 0.01 µM: compound concentration 0.01 μM, read-out: EXP_VALUE(% Inhibition) DNA-PK(h) 0.01 μM; for inhibition at 0.1 µM: compound concentration 0.1 μM, read-out: EXP_VALUE(% Inhibition) DNA-PK(h) 0.1 μM
Procedure: <Experimental Example 2> Evaluation of Inhibitory Activity Properties Against DNA-PK
The following experiments were performed to verify the inhibitory activity against DNA-PK with regard to each of the compounds of Examples 1 to 441 according to the present invention.
DNA-PK(h) was subjected to an isothermal treatment in an assay buffer comprising […] GST-cMyc-p53 and Mg/ATP (at a concentration as required). The reaction was initiated by the addition of a Mg/ATP mixture, and after incubation for 30 minutes at room temperature, a stop solution comprising EDTA was added to stop the reaction. A detection buffer comprising d2-labelled anti-GST monoclonal antibody and Europium-labelled anti-phospho Ser15 antibody for phosphorylated p53 was added. A plate was read in a time-resolved fluorescence mode and a homogeneous time-resolved fluorescence (HTRF) signal was determined according to HTRF=10000×(Em 665 nm/Em 620 nm).

Chain of PI3K-δ (PI3K(p1108/p857) (h)) (O00329 whole entry): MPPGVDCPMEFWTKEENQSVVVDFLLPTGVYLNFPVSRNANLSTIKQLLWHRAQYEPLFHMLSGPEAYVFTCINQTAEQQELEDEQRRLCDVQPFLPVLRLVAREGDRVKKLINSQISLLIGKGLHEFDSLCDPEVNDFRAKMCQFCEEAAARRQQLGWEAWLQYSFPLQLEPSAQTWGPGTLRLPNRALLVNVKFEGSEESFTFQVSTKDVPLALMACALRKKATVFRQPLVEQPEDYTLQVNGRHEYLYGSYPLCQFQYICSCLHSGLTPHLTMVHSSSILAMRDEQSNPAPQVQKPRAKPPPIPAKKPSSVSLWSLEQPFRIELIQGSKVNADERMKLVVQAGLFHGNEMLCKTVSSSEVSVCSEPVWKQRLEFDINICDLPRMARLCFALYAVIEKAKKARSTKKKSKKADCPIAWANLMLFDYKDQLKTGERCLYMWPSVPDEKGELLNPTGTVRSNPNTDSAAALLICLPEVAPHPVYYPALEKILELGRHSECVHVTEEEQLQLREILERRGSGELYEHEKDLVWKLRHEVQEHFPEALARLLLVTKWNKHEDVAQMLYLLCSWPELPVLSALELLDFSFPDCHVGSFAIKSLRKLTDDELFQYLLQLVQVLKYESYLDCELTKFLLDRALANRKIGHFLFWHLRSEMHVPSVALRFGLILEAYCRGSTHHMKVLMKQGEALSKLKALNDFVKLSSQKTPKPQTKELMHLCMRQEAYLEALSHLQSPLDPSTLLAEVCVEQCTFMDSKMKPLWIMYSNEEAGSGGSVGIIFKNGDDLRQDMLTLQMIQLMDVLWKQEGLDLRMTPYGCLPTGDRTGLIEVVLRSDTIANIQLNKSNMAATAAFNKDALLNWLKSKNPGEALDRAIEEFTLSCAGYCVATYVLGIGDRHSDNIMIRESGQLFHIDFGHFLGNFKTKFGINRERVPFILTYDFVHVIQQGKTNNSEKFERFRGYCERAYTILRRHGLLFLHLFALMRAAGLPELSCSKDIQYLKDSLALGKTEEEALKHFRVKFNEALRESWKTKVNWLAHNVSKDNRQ
Chain of PI3K-δ (PI3K(p1108/p857) (h)) (P27986 whole entry partner): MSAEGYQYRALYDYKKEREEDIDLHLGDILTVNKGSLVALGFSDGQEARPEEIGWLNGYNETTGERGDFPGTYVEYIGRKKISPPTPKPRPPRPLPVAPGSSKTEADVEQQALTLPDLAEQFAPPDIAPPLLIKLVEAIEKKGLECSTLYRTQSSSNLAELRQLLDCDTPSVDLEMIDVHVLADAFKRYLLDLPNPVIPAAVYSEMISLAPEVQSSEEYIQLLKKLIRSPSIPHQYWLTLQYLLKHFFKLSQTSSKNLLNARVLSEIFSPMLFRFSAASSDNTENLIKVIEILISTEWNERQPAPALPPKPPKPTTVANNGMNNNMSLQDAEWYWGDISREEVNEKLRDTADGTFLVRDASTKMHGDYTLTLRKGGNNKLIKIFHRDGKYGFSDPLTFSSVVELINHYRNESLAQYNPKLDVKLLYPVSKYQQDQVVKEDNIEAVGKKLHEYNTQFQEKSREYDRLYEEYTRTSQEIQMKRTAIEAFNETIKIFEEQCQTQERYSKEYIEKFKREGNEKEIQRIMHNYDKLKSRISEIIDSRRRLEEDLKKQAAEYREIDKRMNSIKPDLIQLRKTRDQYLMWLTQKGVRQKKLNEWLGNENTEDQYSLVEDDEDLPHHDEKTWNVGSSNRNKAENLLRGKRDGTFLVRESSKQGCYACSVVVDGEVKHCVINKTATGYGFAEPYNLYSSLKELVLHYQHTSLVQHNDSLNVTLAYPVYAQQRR

inhibition at 0.01 µM [1] | inhibition at 0.1 µM [1] | inhibition at 0.01 µM [2] | inhibition at 0.1 µM [2] | Compound
99% | 97% | 70% | 94% | Cc1ccc(-c2cccc3c(Br)c([C@H](C)Nc4ncnc5[nH]ccc(=O)c45)n(-c4ccccc4)c(=O)c23)cn1 [Example 17, (S)-4-((1-(4-bromo-8-(6-methylpyridin-3-yl)-1-oxo-2-phenyl-1,2-dihydroisoquinolin-3-yl)ethyl)amino)pyrido[2,3-d]pyrimidin-5(8H)-one]
80% | 96% | 75% | 98% | C[C@H](Nc1ncnc2[nH]ccc(=O)c12)c1c(Br)c2cccc(-c3ccc(F)cc3)c2c(=O)n1-c1ccccc1 [Example 18, (S)-4-((1-(4-bromo-8-(4-fluorophenyl)-1-oxo-2-phenyl-1,2-dihydroisoquinolin-3-yl)ethyl)amino)pyrido[2,3-d]pyrimidin-5(8H)-one]
89% | 102% | 78% | 98% | C[C@H](Nc1ncnc2[nH]ccc(=O)c12)c1c(Br)c2cccc(-c3cnn(C)c3)c2c(=O)n1-c1ccccc1 [Example 19, (S)-4-((1-(4-bromo-8-(1-methyl-1H-pyrazol-4-yl)-1-oxo-2-phenyl-1,2-dihydroisoquinolin-3-yl)ethyl)amino)pyrido[2,3-d]pyrimidin-5(8H)-one]
67% | 95% | 3% | 55% | C[C@H](Nc1ncnc2[nH]ccc(=O)c12)c1cc2cccc(-c3ccc(N(C)C)cc3)c2c(=O)n1-c1ccccc1 [Example 20, (S)-4-((1-(8-(4-(dimethylamino)phenyl)-1-oxo-2-phenyl-1,2-dihydroisoquinolin-3-yl)ethyl)amino)pyrido[2,3-d]pyrimidin-5(8H)-one]
90% | 99% | 69% | 95% | C[C@H](Nc1ncnc2[nH]ccc(=O)c12)c1c(Cl)c2cccc(-c3ccc4[nH]c(=O)[nH]c4c3)c2c(=O)n1-c1ccccc1 [Example 21, (S)-4-((1-(4-chloro-1-oxo-8-(2-oxo-2,3-dihydro-1H-benzo[d]imidazol-5-yl)-2-phenyl-1,2-dihydroisoquinolin-3-yl)ethyl)amino)pyrido[2,3-d]pyrimidin-5(8H)-one]
89% | 93% | 69% | 97% | Cc1nc2ccc(-c3cccc4c(Cl)c([C@H](C)Nc5ncnc6[nH]ccc(=O)c56)n(-c5ccccc5)c(=O)c34)cc2o1 [Example 22, (S)-4-((1-(4-chloro-8-(2-methylbenzo[d]oxazol-6-yl)-1-oxo-2-phenyl-1,2-dihydroisoquinolin-3-yl)ethyl)amino)pyrido[2,3-d]pyrimidin-5(8H)-one]
82% | 96% | 38% | 85% | C[C@H](Nc1ncnc2[nH]ccc(=O)c12)c1cc2cccc(-c3ccc(C#N)cc3)c2c(=O)n1-c1ccccc1 [Example 23, (S)-4-(1-oxo-3-(1-((5-oxo-5,8-dihydropyrido[2,3-d]pyrimidin-4-yl)amino)ethyl)-2-phenyl-1,2-dihydroisoquinolin-8-yl)benzonitrile]
61% | – | 85% | – | C[C@H](Nc1ncnc2[nH]ccc(=O)c12)c1c(Cl)c2cccc(-c3ccc4cnoc4c3)c2c(=O)n1-c1ccccc1 [Example 24, (S)-4-((1-(8-(benzo[d]isoxazol-6-yl)-4-chloro-1-oxo-2-phenyl-1,2-dihydroisoquinolin-3-yl)ethyl)amino)pyrido[2,3-d]pyrimidin-5(8H)-one]
6% | – | 7% | – | C[C@H](Nc1ncnc2[nH]ccc(=O)c12)c1c(Cl)c2cccc(-c3cnc4[nH]ccc4c3)c2c(=O)n1-c1ccccc1 [Example 25, (S)-4-((1-(4-chloro-1-oxo-2-phenyl-8-(1H-pyrrolo[2,3-b]pyridin-5-yl)-1,2-dihydroisoquinolin-3-yl)ethyl)amino)pyrido[2,3-d]pyrimidin-5(8H)-one]
92% | – | 66% | – | C[C@H](Nc1ncnc2[nH]ccc(=O)c12)c1c(Cl)c2cccc(-c3cnc(C(C)(C)O)nc3)c2c(=O)n1-c1ccccc1 [Example 26, (S)-4-((1-(4-chloro-8-(2-(2-hydroxypropan-2-yl)pyrimidin-5-yl)-1-oxo-2-phenyl-1,2-dihydroisoquinolin-3-yl)ethyl)amino)pyrido[2,3-d]pyrimidin-5(8H)-one]
76% | – | 34% | – | C[C@H](Nc1ncnc2[nH]ccc(=O)c12)c1c(Cl)c2cccc(-c3cc4[nH]ncc4cn3)c2c(=O)n1-c1ccccc1 [Example 27, (S)-4-((1-(4-chloro-1-oxo-2-phenyl-8-(1H-pyrazolo[4,3-c]pyridin-6-yl)-1,2-dihydroisoquinolin-3-yl)ethyl)amino)pyrido[2,3-d]pyrimidin-5(8H)-one]
69% | – | 61% | – | COc1ncc(-c2cccc3c(Cl)c([C@H](C)Nc4ncnc5[nH]ccc(=O)c45)n(-c4ccccc4)c(=O)c23)nc1OC [Example 28, (S)-4-((1-(4-chloro-8-(5,6-dimethoxypyrazin-2-yl)-1-oxo-2-phenyl-1,2-dihydroisoquinolin-3-yl)ethyl)amino)pyrido[2,3-d]pyrimidin-5(8H)-one]
70% | – | 99% | – | C[C@H](Nc1ncnc2[nH]ccc(=O)c12)c1c(Cl)c2cccc(-c3ccc(-c4nccs4)cc3)c2c(=O)n1-c1ccccc1 [Example 29, (S)-4-((1-(4-chloro-1-oxo-2-phenyl-8-(4-(thiazol-2-yl)phenyl)-1,2-dihydroisoquinolin-3-yl)ethyl)amino)pyrido[2,3-d]pyrimidin-5(8H)-one]
12% | – | 101% | – | COc1cnc(-c2cccc3c(Cl)c([C@H](C)Nc4ncnc5[nH]ccc(=O)c45)n(-c4ccccc4)c(=O)c23)nc1 [Example 30, (S)-4-((1-(4-chloro-8-(5-methoxypyrimidin-2-yl)-1-oxo-2-phenyl-1,2-dihydroisoquinolin-3-yl)ethyl)amino)pyrido[2,3-d]pyrimidin-5(8H)-one]
0% | – | 2% | – | C[C@H](Nc1ncnc2[nH]ccc(=O)c12)c1c(Cl)c2cccc(-c3ccc(C#N)cn3)c2c(=O)n1-c1ccccc1 [Example 31, (S)-6-(4-chloro-1-oxo-3-(1-((5-oxo-5,8-dihydropyrido[2,3-d]pyrimidin-4-yl)amino)ethyl)-2-phenyl-1,2-dihydroisoquinolin-8-yl) nicotinonitrile]
96% | – | 75% | – | C[C@H](Nc1ncnc2[nH]ccc(=O)c12)c1c(Cl)c2cccc(-c3ccc4ncncc4c3)c2c(=O)n1-c1ccccc1 [Example 32, (S)-4-((1-(4-chloro-1-oxo-2-phenyl-8-(quinazolin-6-yl)-1,2-dihydroisoquinolin-3-yl)ethyl)amino)pyrido[2,3-d]pyrimidin-5(8H)-one]
92% | – | 48% | – | C[C@H](Nc1ncnc2[nH]ccc(=O)c12)c1c(Cl)c2cccc(-c3ccc(-c4ccon4)cc3)c2c(=O)n1-c1ccccc1 [Example 33, (S)-4-((1-(4-chloro-8-(4-(isoxazol-3-yl)phenyl)-1-oxo-2-phenyl-1,2-dihydroisoquinolin-3-yl)ethyl)amino)pyrido[2,3-d]pyrimidin-5(8H)-one]
74% | – | 56% | – | C[C@H](Nc1ncnc2[nH]ccc(=O)c12)c1c(Cl)c2cccc(-c3ccc(C(C)(C)C)nc3)c2c(=O)n1-c1ccccc1 [Example 34, (S)-4-((1-(8-(6-(tert-butyl)pyridin-3-yl)-4-chloro-1-oxo-2-phenyl-1,2-dihydroisoquinolin-3-yl)ethyl)amino)pyrido[2,3-d]pyrimidin-5(8H)-one]
21% | – | 7% | – | C[C@H](Nc1ncnc2[nH]ccc(=O)c12)c1c(Cl)c2cccc(-c3ncccn3)c2c(=O)n1-c1ccccc1 [Example 35, (S)-4-((1-(4-chloro-1-oxo-2-phenyl-8-(pyrimidin-2-yl)-1,2-dihydroisoquinolin-3-yl)ethyl)amino)pyrido[2,3-d]pyrimidin-5(8H)-one]
74% | – | 34% | – | C[C@H](Nc1ncnc2[nH]ccc(=O)c12)c1c(Cl)c2cccc(-c3cc(O)c(O)c(F)c3)c2c(=O)n1-c1ccccc1 [Example 36, (S)-4-((1-(4-chloro-8-(3-fluoro-4,5-dihydroxyphenyl)-1-oxo-2-phenyl-1,2-dihydroisoquinolin-3-yl)ethyl)amino)pyrido[2,3-d]pyrimidin-5(8H)-one]
